In brackets after ≈: the same amount, converted by molar mass.
How the values were obtained:
[1] = Solubility in CHCl3 by UV-vis absorbance calibration curve; assay type: physicochemical; conditions: room temperature, 50 mg/mL samples stirred overnight, 0.45 μm filtered, diluted 2000x, Beer-Lambert; for solubility: CHCl3, organic solvent or mixture, thermodynamic from solid
Protocol: FIG. 2 is a concentration vs absorption plot for determining the solubility of compounds (5) and (7) in CHCl3. A calibration curve was made for each compound by plotting absorbance values of known concentrations. (Dotted lines). In order to determine solubility, compounds (5) and (7) were made into solutions having 50 mg/mL concentration, allowed to stir overnight and then passed through a 0.45 μm syringe filter to remove any undissolved solids. The obtained solutions were then diluted by a factor of 2000 so that their absorbance was in the range of values used for the calibration curves. By using the Beer-Lambert law and the slope of the respective curves, it was determined that the solubility of both (5) and (7) was ˜50 mg/mL. This observation is confirmed by the apparent complete dissolution of 50 mg/mL samples of either (5) or (7) in CHCl3.
With the N annulated PDI derivatives (4), (5) and (7) in hand we set out to study their optical electronic and solubility characteristics. The N-annulated PDI materials bear an extra site for alkyl chain functionalization which was envisioned to modify the solubility and self-assembly characteristics of the materials with respect to the parent PDI compound (2). […] This assertion is supported by ^1H NMR evidence showing that the N—H proton becomes more deshielded upon increasing the solution concentration, typically observed for hydrogen bonding interactions (not shown). […] [54] Importantly, such high organic solvent solubility is achieved without the need for long branched alkyl chains attached to the imide N atoms, chains that are used for almost all reported multi-PDI based materials. Thus, one can envision a wide array of alkyl chains being installed to fine-tune molecular assembly in the solid state, following the so-called “side chain engineering” methodology.

[2] = Thermal stability by TGA analysis; assay type: physicochemical
Protocol: The melting points of compounds (4), (5), and (7) were also determined and provide support for the assertion that compound (4) experiences intermolecular hydrogen bonding interactions. […] Dimerization improves thermal stability.

For CCC(CC)n1c(=O)c2ccc3c4ccc5c(=O)n(C(CC)CC)c(=O)c6cc7[nH]c8cc(c1=O)c2c3c8c7c4c56 [Compound 4, EP-NH-CAG-PDI], which solubility [1] is on record?
Its solubility is less than 1 mg/mL.

And the melting point?
Its melting point is 235 °C.

Which results are given for CCCCCCn1c2cc3c(=O)n(C(CC)CC)c(=O)c4ccc5c6ccc7c(=O)n(C(CC)CC)c(=O)c8cc1c(c6c78)c2c5c43 [Compound 5, EP-N-Hex-CAG-PDI]?
solubility [1]: > 50 mg/mL; solubility in CHCl3 [1]: ~50 mg/mL (≈ 79.6 mM)

For CCCCCCn1c2cc3c(=O)n(C(CC)CC)c(=O)c4ccc5c6c(-c7cc8c(=O)n(C(CC)CC)c(=O)c9cc%10c%11c(c7c7ccc%12c(=O)n(C(CC)CC)c(=O)c%13cc(c%11c7c%12%13)n%10CCCCCC)c89)cc7c(=O)n(C(CC)CC)c(=O)c8cc1c(c6c78)c2c5c43 [Compound 7, BAY-EP-N-Hex-CAG-PDI], which solubility [1] is on record?
The solubility was greater than 50 mg/mL.

And the “solubility in CHCl3” value [1]?
Its value is roughly 50 mg/mL (≈ 39.9 mM).

What about the “thermally stable up to / decomposition temperature (TGA)” value [2] of the same compound?
Its value is roughly 425 °C.

Reference: US9865819B2, “Nitrogen annulated perylene diimides for use as electron transport materials in organic electronic devices” (UTI Limited Partnership, priority 2016, dated 2018)
